Like-named read-outs stand apart in the source and are kept apart here.
Tests used:
[1] = tested on: Agrobacterium tumefaciens strain EHA 101
Description: Three mls of pre-induced Agrobacterium suspension (A660 OD 4.0) was added to a 6-well tissue culture plate as described. After adding the explants to the Agrobacterium suspension cells, the inoculation was performed for 15 minutes. The Agrobacterium suspension was removed and the embryos were placed on semi-solid medium with or without AgNO3 (20 ? M final concentration). All the tissues were incubated for three days in the dark. The amount of Agrobacterium present was estimated at the beginning by randomly sampling immature embryos immediately after inoculation and again at the end of the co-culture period to determine the number of attached Agrobacterium cells per immature embryo explant.

[2] = tested on: Agrobacterium tumefaciens strain C58 (ABI)
Description: Disarmed Agrobacterium tumefaciens strain C58 (ABI) harboring binary vector pMON18365 (FIG. 2) was used in this Example. The Agrobacterium strain was pre-induced as described previously.
Three mls of pre-induced Agrobacterium suspension (A660 OD 1.0) was added to a 6-well tissue culture plate. After adding the explants, the plant tissues and Agrobacterium suspension cells were subjected to vacuum infiltration for three hours. After the three hour vacuum infiltration, the Agrobacterium suspension was removed and the plant tissues were placed on semi-solid medium containing 10 ? M AgNO3 (final concentration). All the tissues were incubated for three days in the dark.
All explants were transferred to the medium without the growth inhibiting agent and evaluation of Agrobacterium growth was observed seven days post-transfer.

[3] = tested on: T-DNA delivery to immature embryos of corn genotype H99×A188; settings: co-culture with 10 μM AgNO3, three days
Description: The Agrobacterium strain was pre-induced as described previously and three mls of pre-induced Agrobacterium suspension (A660 OD 1.0, 2.0, 3.0 and 4.0) was used. After adding the explants the Agrobacterium suspension cells, the inoculation was performed for 15 minutes. The Agrobacterium suspension was removed and embryos were placed on 1/2 MS corn co-culture medium supplemented with 10 ? M AgNO3 (final concentration). The co-culture duration was for three days in the dark. The efficiency of T-NA delivery was estimated by a transient GUS analysis three days after co-culture by incubating embryos directly in GUS staining buffer for 12-15 hours and counting the number of GUS foci per immature embryo explant (Table 20).

Agrobacterium cells = settings: for Results (growth of Agrobacterium cells): 15 hours; for OD A660 after 15 hours growth: starting OD 0.2
Description: Agrobacterium cultures used for transformation are pre-induced (except as otherwise indicated) by acetosyringone (200 μM) and glucose (2%) in AB based induction medium. The procedure followed was as follows:
Agrobacterium cells were centrifuged at 4° C. for 10 min at 3250 g and the pellet was resuspended in the pre-induction medium to a final optical density of 0.2 at A660 and incubated at 28° C. for 12-15 h.
During pre-induction, AgNO3 was added at two different levels (20 ? M and 40 ? M final concentration) to the pre-induction medium. The final optical density prior to the induction was adjusted to A660 (OD 0.2). Agrobacterium cells were pre-induced for 15 hours. Measurement of the optical density (measure of growth) was taken at the end of pre-induction, just prior to transformation. Agrobacterium cells pre-induced in the absence of AgNO3 were used as a control.

[4] = tested on: Agrobacterium (strain ABI); format: cell-based; set-up: key: “No Growth” indicates there was not an increase in cell density indicating bacteriocidal or bacteriostatic property of the chemical; “Slow Growth” indicates that a slight increase in cell density was noticed and a higher level may be lethal; “Growth” indicates no effect on bacterial growth at the concentration used relative to growth in control medium; settings: control, AgNO3 20 μM; twenty-four hours
Description: Each of the chemicals listed in Table 26 was resuspended in MS-BMS media and added (final concentration 50 μM) to a 50 ml overnight culture of Agrobacterium (strain ABI). Twenty-four hours after inoculation the effect of the chemicals on the growth of Agrobacterium was recorded. A known bacteriocidal compound, Carbenicillin at a final concentration of 50 mg/L and AgNO3 (20 μM) were used as controls.

[5] = tested on: immature embryos of genotype H99×A188; settings: observed 2 weeks post transfer to delay medium
Description: (§1) Immature embryos of genotype H99×A188 were isolated as described above. The disarmed Agrobacterium strain ABI harboring binary vector pMON18365 (FIG. 2) was used. The Agrobacterium strain was pre-induced as described above and three mls of pre-induced Agrobacterium suspension (A660 OD 4.0) was added to a 6-well tissue culture plate as described earlier. The inoculation was performed for three hours under vacuum. The Agrobacterium suspension was removed and embryos were placed on respective semi-solid medium containing various concentrations of AgNO3 (0, 10, 20, 40, 60 ? M AgNO3 final concentration). All the tissues were incubated for three days in the dark. The efficiency of T-DNA delivery was estimated by a transient GUS analysis performed three days after co-culture by counting the number of GUS foci per immature embryo explant (Table 21). Efficiency of culture response was determined by transferring the embryos to a delay medium (D medium, supplemented with 500 mg/L Carbenicillin) and taking observation 2 weeks post transfer.

[6] = tested on: T-DNA transfer to immature embryos of genotype H99×A188; settings: for Average number of GUS foci/explant: three days
Description: as §1

[7] = 20 μM AgNO3 in pre-induction medium
[8] = 40 μM AgNO3 in pre-induction medium
[9] = 10 μM AgNO3 in co-culture medium
[10] = 20 μM AgNO3 in co-culture medium
[11] = 40 μM AgNO3 in co-culture medium
[12] = 60 μM AgNO3 in co-culture medium

`O=[N+]([O-])[O-].[Ag+]` [AgNO3, silver nitrate] was tested, and the “Effect on growth of Agrobacterium during co-culture” value ([1]; 20 μM AgNO3, three days co-culture) was “significantly inhibited”, the “Results (fold reduction of Agrobacterium colonies/explant)” value ([1]; 3d co-culture plus 20 μM AgNO3, versus 0d) was 30 fold reduction and the “Average # of Agrobacterium Colonies/Explant” value ([1]; 3d co-culture plus 20 μM AgNO3, 0d value 3 × 10^5 CFU) was 1.0 × 10^4 CFU. For the same compound, the “Growth of Agrobacterium cells surrounding explants” value ([2]; co-culture medium with 10 μM AgNO3, three days) was “No growth”, the “Growth of Agrobacterium cells surrounding explants after transfer to medium without the agent” value ([2]; seven days post-transfer, after three days on 10 μM AgNO3) was “Profuse growth” and the “Average number of GUS foci/explant” value ([3]; OD660 1.0, Pre-induced) was 7. The “Average number of GUS foci/explant” value ([3]; OD660 2.0, Not pre-induced (grown in LB)) was 2, the “Average number of GUS foci/explant” value ([3]; OD660 2.0, Pre-induced) was 28 and the “Average number of GUS foci/explant” value ([3]; OD660 3.0, Pre-induced) was 39. For the same compound, the “Average number of GUS foci/explant” value ([3]; OD660 4.0, Not pre-induced (grown in LB)) was under 1, the “Average number of GUS foci/explant” value ([3]; OD660 4.0, Pre-induced) was 66 and the “Results (growth of Agrobacterium cells)” value (Agrobacterium cells; [7]) was “no growth”. For the same compound, the “OD A660 after 15 hours growth” value (Agrobacterium cells; [7]) was 0.23, the “Results (growth of Agrobacterium cells)” value (Agrobacterium cells; [8]) was “no growth” and the “OD A660 after 15 hours growth” value (Agrobacterium cells; [8]) was 0.24. For the same compound, the “Effect on Agrobacterium cells, plating on semi-solid LB plates” value (Agrobacterium cells; 15 hour culture period in the presence of AgNO3 (20 or 40 μM)) was “lethal”, the “Effect (on growth of Agrobacterium)” value [4] was “No Growth” and the “% of immature embryos responding to culture” value [5, 9] was 42%. For the same compound, the “% of immature embryos responding to culture” value [5, 10] was 64%, the “% of immature embryos responding to culture” value [5, 11] was 62% and the “% of immature embryos responding to culture” value [5, 12] was 60%. For the same compound, the “Effect on frequency of T-DNA transfer and tissue survival” value ([6]; 10 μM AgNO3 during co-culture) was “positive effect”, the “Average number of GUS foci/explant” value [6, 9] was 63 and the “Average number of GUS foci/explant” value [6, 10] was 26. The “Average number of GUS foci/explant” value [6, 11] was 28, the “Effect on T-DNA transfer” value ([6]; 60 μM AgNO3 during co-culture) was “inhibitory” and the “Average number of GUS foci/explant” value [6, 12] was 12.

— patent publication US20030204875A1, “Novel agrobacterium-mediated plant transformation method” (priority 1999, published 2003)
